The numbers were not newly measured in paper PMC6269737, “Effect of Honokiol on Cytochrome P450 and UDP-Glucuronosyltransferase Enzyme Activities in Human Liver Microsomes” (Molecules, 2013), which cites them from elsewhere.

Each structure is given as a SMILES string.

In one series the target is CYP2C19 (Homo sapiens, UniProt P33261). The arrangement: method as in PMID 23446989. The settings on record: inhibitory effect towards CYP2C19; cited from earlier work.
The target of a further series is T1, CYP2B6 (Homo sapiens, UniProt P20813).
T1 sequence (P20813 1-491): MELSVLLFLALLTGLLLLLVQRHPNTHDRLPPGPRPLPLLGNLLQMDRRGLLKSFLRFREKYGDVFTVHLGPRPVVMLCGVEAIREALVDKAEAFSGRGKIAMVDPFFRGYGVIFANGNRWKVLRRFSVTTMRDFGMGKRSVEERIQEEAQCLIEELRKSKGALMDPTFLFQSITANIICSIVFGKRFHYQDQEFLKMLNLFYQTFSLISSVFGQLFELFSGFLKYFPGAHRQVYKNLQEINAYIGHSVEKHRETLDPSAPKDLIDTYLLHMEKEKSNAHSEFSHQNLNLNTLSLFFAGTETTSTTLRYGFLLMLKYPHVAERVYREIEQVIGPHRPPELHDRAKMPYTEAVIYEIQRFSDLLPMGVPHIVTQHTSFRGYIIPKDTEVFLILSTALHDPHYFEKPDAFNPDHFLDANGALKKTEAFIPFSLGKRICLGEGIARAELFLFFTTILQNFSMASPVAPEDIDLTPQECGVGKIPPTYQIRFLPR
The arrangement: method as in PMID 23446989. Particulars: inhibitory effect towards CYP2B6; cited from earlier work.

The target in the next series is T2, CYP2C8 (Homo sapiens, UniProt P10632).
T2 sequence (P10632 1-490): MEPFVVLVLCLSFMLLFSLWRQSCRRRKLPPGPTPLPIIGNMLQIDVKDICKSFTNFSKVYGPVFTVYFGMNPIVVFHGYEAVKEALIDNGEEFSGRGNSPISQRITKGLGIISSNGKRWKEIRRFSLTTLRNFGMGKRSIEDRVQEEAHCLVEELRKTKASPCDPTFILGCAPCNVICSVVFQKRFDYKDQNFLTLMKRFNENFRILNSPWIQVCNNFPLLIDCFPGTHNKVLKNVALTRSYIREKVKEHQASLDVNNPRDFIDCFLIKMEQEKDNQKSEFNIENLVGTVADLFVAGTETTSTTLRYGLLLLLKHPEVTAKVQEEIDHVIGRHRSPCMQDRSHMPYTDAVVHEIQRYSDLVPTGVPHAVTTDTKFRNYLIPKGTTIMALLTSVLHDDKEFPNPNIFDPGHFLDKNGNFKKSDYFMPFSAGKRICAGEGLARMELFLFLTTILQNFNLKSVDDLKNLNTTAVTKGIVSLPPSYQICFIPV
The settings on record: cited from earlier work.

Another series has as its target T3, CYP1A2 (Homo sapiens, UniProt P05177).
T3 sequence (P05177 1-516): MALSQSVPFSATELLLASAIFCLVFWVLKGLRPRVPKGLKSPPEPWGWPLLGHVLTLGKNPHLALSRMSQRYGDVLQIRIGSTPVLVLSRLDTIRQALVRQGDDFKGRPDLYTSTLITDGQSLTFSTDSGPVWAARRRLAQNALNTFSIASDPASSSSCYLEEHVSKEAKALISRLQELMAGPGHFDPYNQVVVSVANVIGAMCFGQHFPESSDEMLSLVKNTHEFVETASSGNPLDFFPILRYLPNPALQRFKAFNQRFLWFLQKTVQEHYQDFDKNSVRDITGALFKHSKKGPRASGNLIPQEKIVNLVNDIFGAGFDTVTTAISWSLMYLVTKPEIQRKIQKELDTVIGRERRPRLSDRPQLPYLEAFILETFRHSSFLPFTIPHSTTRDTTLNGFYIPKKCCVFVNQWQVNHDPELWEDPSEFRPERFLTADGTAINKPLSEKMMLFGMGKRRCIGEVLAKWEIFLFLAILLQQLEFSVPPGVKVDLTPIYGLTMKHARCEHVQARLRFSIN
Also on record: method as in PMID 23446989. The settings on record: inhibitory effect towards CYP1A2; cited from earlier work.

The next series deals with CYP2C9 (Homo sapiens, UniProt P11712). Particulars: inhibitory effect towards CYP2C9; cited from earlier work.
The target of the next series is T4, UGT1A9 (Homo sapiens, UniProt O60656).
T4 sequence (O60656 26-530): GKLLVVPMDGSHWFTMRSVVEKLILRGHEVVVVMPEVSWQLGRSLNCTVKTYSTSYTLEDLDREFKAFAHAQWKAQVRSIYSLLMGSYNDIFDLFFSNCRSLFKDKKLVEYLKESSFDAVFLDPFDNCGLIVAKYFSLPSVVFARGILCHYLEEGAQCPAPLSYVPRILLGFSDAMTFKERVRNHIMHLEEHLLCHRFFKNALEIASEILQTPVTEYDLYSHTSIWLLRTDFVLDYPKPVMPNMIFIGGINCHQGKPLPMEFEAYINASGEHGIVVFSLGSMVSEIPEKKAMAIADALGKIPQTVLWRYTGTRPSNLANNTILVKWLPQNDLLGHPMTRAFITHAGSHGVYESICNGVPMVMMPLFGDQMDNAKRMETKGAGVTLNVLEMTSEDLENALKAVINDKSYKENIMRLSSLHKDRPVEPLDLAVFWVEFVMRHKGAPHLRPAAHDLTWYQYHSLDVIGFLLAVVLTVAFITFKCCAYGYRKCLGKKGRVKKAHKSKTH
Also on record: method as in PMID 21245288. The settings on record: selective UGT1A9 inhibitor; cited from earlier work.

Chain of CYP2C19 (P33261 whole entry): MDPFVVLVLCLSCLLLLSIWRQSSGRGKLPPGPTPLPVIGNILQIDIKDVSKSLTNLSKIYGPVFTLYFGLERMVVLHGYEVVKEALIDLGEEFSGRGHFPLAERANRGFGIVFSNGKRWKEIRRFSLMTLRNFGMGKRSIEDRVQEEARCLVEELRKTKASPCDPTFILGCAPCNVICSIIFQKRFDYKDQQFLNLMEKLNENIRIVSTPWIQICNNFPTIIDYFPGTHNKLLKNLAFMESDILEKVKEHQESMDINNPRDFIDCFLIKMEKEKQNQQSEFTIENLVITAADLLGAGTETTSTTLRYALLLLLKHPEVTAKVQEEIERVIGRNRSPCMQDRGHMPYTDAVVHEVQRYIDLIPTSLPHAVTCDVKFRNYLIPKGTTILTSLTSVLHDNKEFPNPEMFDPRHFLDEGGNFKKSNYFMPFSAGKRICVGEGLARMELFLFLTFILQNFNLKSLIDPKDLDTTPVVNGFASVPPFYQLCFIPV
Chain of CYP2C9 (P11712 whole entry): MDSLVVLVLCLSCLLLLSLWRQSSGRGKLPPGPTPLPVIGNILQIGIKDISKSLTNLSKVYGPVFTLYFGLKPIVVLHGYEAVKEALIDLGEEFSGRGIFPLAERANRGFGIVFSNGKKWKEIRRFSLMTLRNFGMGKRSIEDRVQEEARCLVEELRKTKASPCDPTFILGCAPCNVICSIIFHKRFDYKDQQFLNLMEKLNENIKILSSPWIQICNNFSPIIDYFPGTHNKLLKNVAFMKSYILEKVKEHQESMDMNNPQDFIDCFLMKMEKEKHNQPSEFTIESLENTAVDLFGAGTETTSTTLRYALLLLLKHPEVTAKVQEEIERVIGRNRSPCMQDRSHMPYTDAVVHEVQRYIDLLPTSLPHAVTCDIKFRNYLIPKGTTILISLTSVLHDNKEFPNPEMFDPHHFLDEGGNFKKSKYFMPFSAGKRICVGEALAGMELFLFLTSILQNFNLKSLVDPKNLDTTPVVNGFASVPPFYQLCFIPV

As a reminder, the IC50 is the concentration at which inhibition is half-maximal. For `C=CCc1ccc(Oc2cc(CC=C)cc(O)c2O)cc1` [obovatol], the IC50 on CYP2C19 was 0.8 µM; at CYP2B6 it was 13.9 µM; at CYP2C8 (inhibitory effect towards CYP2C8) it was 11.1 µM; on CYP1A2, 4.4 µM; at CYP2C9 it was 3.3 µM.
The term Ki denotes the equilibrium dissociation constant of an inhibitor or competing ligand from its target. As for `Cc1ccc(C)c(OCCCC(C)(C)C(=O)O[C@@H]2O[C@H](C(=O)O)[C@@H](O)[C@H](O)[C@H]2O)c1` [gemfibrozil glucuronide], the Ki at CYP2C8 (selective CYP2C8 inhibitor) is 20 to 52 µM.
Regarding `O=C(O)c1cccnc1Nc1cccc(C(F)(F)F)c1` [niflumic acid], the Ki at UGT1A9 was 0.1 to 0.4 µM.
